Common to all, as to test: relative viability (nuclei count vs DMSO), 5 days (fraction); higher = more cells survive
Compound in experiment [1]: COC1=CC=C(C=C1)CN2C=CC3=C2C=C(C=C3)C(=O)NO + NC(=O)Nc1cc(-c2cccc(F)c2)sc1C(=O)N[C@H]1CCCNC1 [AZD7762] (partner 0.2 µM)
Put shortly:
(§1)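 One day after seeding in 1536-well plates, lung cancer cell lines were dosed by pin tool. Dosing was either single-drug or a fixed anchor-drug dose plus five library-drug doses (not always all listed) in √10 steps. After 5 days, nuclei were stained in one fix-and-stain step and counted on 4× images, and relative viability is the nuclei count of treated wells over that of vehicle wells, given as the median of duplicate plates.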

Compound in experiment [2]: COC1=CC=C(C=C1)CN2C=CC3=C2C=C(C=C3)C(=O)NO + O=C(c1cc(Cc2n[nH]c(=O)c3ccccc23)ccc1F)N1CCN(C(=O)C2CC2)CC1 [Olaparib] (partner 8 µM)
Put shortly: as §1

Compound in the experiment “Veliparib + Foretinib”: C[C@]1(c2nc3c(C(N)=O)cccc3[nH]2)CCCN1 [Veliparib] + COc1cc2c(Oc3ccc(NC(=O)C4(C(=O)Nc5ccc(F)cc5)CC4)cc3F)ccnc2cc1OCCCN1CCOCC1 [Foretinib] (partner 0.25 µM)
The method, boiled down: as §1

Compound in the experiment “Veliparib + Crizotinib”: C[C@]1(c2nc3c(C(N)=O)cccc3[nH]2)CCCN1 [Veliparib] + C[C@@H](Oc1cc(-c2cnn(C3CCNCC3)c2)cnc1N)c1c(Cl)ccc(F)c1Cl [Crizotinib] (partner 1 µM)
Put shortly: as §1

Consider NCI-H322M, for which the relative viability was found to be 0.579 in experiment [1] (first compound 0.8 µM); 0.668 in experiment [1] (first compound 2.53 µM); 0.491 in experiment [1] (first compound 8 µM); 0.805 in experiment [2] (first compound 0.8 µM); 0.845 in experiment [2] (first compound 2.53 µM); 0.621 in experiment [2] (first compound 8 µM). Besides, the relative viability with Veliparib + Foretinib (first compound 0.06325 µM) amounted to 0.948; with Veliparib + Foretinib (first compound 0.2 µM), 0.871; with Veliparib + Foretinib (first compound 0.6325 µM) it was 1; with Veliparib + Foretinib (first compound 2 µM) it was 0.937; with Veliparib + Crizotinib (first compound 0.02 µM), 0.895; with Veliparib + Crizotinib (first compound 0.06325 µM), 0.83. The relative viability with Veliparib + Crizotinib (first compound 0.2 µM) was determined as 0.948; with Veliparib + Crizotinib (first compound 0.6325 µM) it was 0.919; in the experiment with Veliparib + Crizotinib (first compound 2 µM) it was 0.945.

Take NCI-H358: the relative viability was 0.54 in experiment [1] (first compound 0.253 µM); 0.443 in experiment [1] (first compound 0.8 µM); 0.557 in experiment [1] (first compound 2.53 µM); 0.354 in experiment [1] (first compound 8 µM); 0.614 in experiment [2] (first compound 0.253 µM); 0.59 in experiment [2] (first compound 0.8 µM). Moreover, the relative viability in experiment [2] (first compound 2.53 µM) is 0.544; in experiment [2] (first compound 8 µM), 0.49; with Veliparib + Foretinib (first compound 0.02 µM), 0.723; in the experiment with Veliparib + Foretinib (first compound 0.06325 µM) it was 0.647; with Veliparib + Foretinib (first compound 0.2 µM) it was 0.623; in the experiment with Veliparib + Foretinib (first compound 0.6325 µM), 0.625. Besides, the relative viability with Veliparib + Foretinib (first compound 2 µM) is 0.573; in the experiment with Veliparib + Crizotinib (first compound 0.06325 µM) it was 0.533; in the experiment with Veliparib + Crizotinib (first compound 0.2 µM), 0.564; in the experiment with Veliparib + Crizotinib (first compound 0.6325 µM), 0.523; with Veliparib + Crizotinib (first compound 2 µM), 0.618.

As to NCI-H441, the relative viability is 1.08 in experiment [1] (first compound 0.08 µM); 1.3 in experiment [1] (first compound 0.253 µM); 1.19 in experiment [1] (first compound 0.8 µM); 1.2 in experiment [1] (first compound 2.53 µM); 0.887 in experiment [1] (first compound 8 µM); 0.441 in experiment [2] (first compound 0.08 µM). Further, the relative viability stood at 0.58 in experiment [2] (first compound 0.253 µM); 0.526 in experiment [2] (first compound 0.8 µM); 0.497 in experiment [2] (first compound 2.53 µM); 0.609 in experiment [2] (first compound 8 µM); 0.905 in the experiment with Veliparib + Foretinib (first compound 0.02 µM); 0.738 with Veliparib + Foretinib (first compound 0.06325 µM). For the same cell line, the relative viability with Veliparib + Foretinib (first compound 0.2 µM) came to 0.992; with Veliparib + Foretinib (first compound 0.6325 µM) it was 0.877; with Veliparib + Foretinib (first compound 2 µM) it was 0.948; with Veliparib + Crizotinib (first compound 0.02 µM) it was 0.663; with Veliparib + Crizotinib (first compound 0.06325 µM), 0.645; with Veliparib + Crizotinib (first compound 0.2 µM), 0.745. For the same cell line, the relative viability with Veliparib + Crizotinib (first compound 0.6325 µM) worked out at 0.593; in the experiment with Veliparib + Crizotinib (first compound 2 µM), 0.63.

As for NCI-H460, the relative viability was 0.536 in experiment [1] (first compound 0.08 µM); 0.485 in experiment [1] (first compound 0.253 µM); 0.588 in experiment [1] (first compound 0.8 µM); 0.614 in experiment [1] (first compound 2.53 µM); 0.515 in experiment [1] (first compound 8 µM); 0.426 in experiment [2] (first compound 0.08 µM). In addition, the relative viability in experiment [2] (first compound 0.253 µM) was 0.457; in experiment [2] (first compound 0.8 µM), 0.401; in experiment [2] (first compound 2.53 µM) it was 0.465; in experiment [2] (first compound 8 µM), 0.397; with Veliparib + Foretinib (first compound 0.02 µM), 0.994; with Veliparib + Foretinib (first compound 0.06325 µM) it was 0.909. For the same cell line, the relative viability with Veliparib + Foretinib (first compound 0.2 µM) was determined as 0.952; in the experiment with Veliparib + Foretinib (first compound 0.6325 µM), 0.948; with Veliparib + Foretinib (first compound 2 µM) it was 0.983; with Veliparib + Crizotinib (first compound 0.06325 µM) it was 0.869; with Veliparib + Crizotinib (first compound 0.2 µM) it was 0.934; with Veliparib + Crizotinib (first compound 0.6325 µM), 0.734. Moreover, the relative viability in the experiment with Veliparib + Crizotinib (first compound 2 µM) was determined as 1.02.

For the cell line NCI-H596, the relative viability in experiment [1] (first compound 0.08 µM) is 1.12; in experiment [1] (first compound 0.253 µM), 1.18; in experiment [1] (first compound 0.8 µM), 1.07; in experiment [1] (first compound 2.53 µM), 1.19; in experiment [1] (first compound 8 µM) it was 0.937; in experiment [2] (first compound 0.08 µM) it was 0.66. For the same cell line, the relative viability in experiment [2] (first compound 0.253 µM) stood at 0.778; in experiment [2] (first compound 0.8 µM), 0.735; in experiment [2] (first compound 2.53 µM) it was 0.805; in experiment [2] (first compound 8 µM), 0.725; with Veliparib + Foretinib (first compound 0.02 µM), 0.967; in the experiment with Veliparib + Foretinib (first compound 0.06325 µM) it was 0.823. The relative viability with Veliparib + Foretinib (first compound 0.2 µM) amounted to 1.02; in the experiment with Veliparib + Foretinib (first compound 0.6325 µM), 0.773; in the experiment with Veliparib + Foretinib (first compound 2 µM), 0.75; with Veliparib + Crizotinib (first compound 0.02 µM) it was 1.05; with Veliparib + Crizotinib (first compound 0.06325 µM), 0.912; with Veliparib + Crizotinib (first compound 0.2 µM) it was 1.06. In addition, the relative viability worked out at 0.862 with Veliparib + Crizotinib (first compound 0.6325 µM) and 0.957 with Veliparib + Crizotinib (first compound 2 µM).

For NCI-H647, the relative viability in experiment [1] (first compound 0.253 µM) was 0.437; in experiment [1] (first compound 0.8 µM) it was 0.495; in experiment [1] (first compound 2.53 µM), 0.361; in experiment [1] (first compound 8 µM), 0.369; in experiment [2] (first compound 0.08 µM), 0.557; in experiment [2] (first compound 0.253 µM) it was 0.537. Moreover, the relative viability came out at 0.422 in experiment [2] (first compound 0.8 µM); 0.495 in experiment [2] (first compound 2.53 µM); 0.547 in experiment [2] (first compound 8 µM); 1.35 with Veliparib + Foretinib (first compound 0.02 µM); 1.15 with Veliparib + Foretinib (first compound 0.06325 µM); 1.29 with Veliparib + Foretinib (first compound 0.2 µM). In addition, the relative viability is 1.15 with Veliparib + Foretinib (first compound 0.6325 µM); 0.977 with Veliparib + Foretinib (first compound 2 µM); 1.07 with Veliparib + Crizotinib (first compound 0.02 µM); 1.01 with Veliparib + Crizotinib (first compound 0.06325 µM); 1.23 in the experiment with Veliparib + Crizotinib (first compound 0.2 µM); 1.03 with Veliparib + Crizotinib (first compound 0.6325 µM). Moreover, in the experiment with Veliparib + Crizotinib (first compound 2 µM), the relative viability is 0.907.

For the cell line NCI-H650, the relative viability in experiment [1] (first compound 0.08 µM) worked out at 0.944; in experiment [1] (first compound 0.253 µM), 0.686; in experiment [1] (first compound 0.8 µM), 0.816; in experiment [1] (first compound 2.53 µM), 1.1; in experiment [1] (first compound 8 µM), 0.763; in experiment [2] (first compound 0.08 µM) it was 0.351. Moreover, the relative viability in experiment [2] (first compound 0.253 µM) came to 0.417; in experiment [2] (first compound 0.8 µM) it was 0.452; in experiment [2] (first compound 2.53 µM), 0.353; in experiment [2] (first compound 8 µM), 0.418; in the experiment with Veliparib + Foretinib (first compound 0.02 µM), 1.06; in the experiment with Veliparib + Foretinib (first compound 0.06325 µM), 0.95. Further, the relative viability was 1.05 with Veliparib + Foretinib (first compound 0.2 µM); 1 in the experiment with Veliparib + Foretinib (first compound 0.6325 µM); 1.09 with Veliparib + Foretinib (first compound 2 µM); 0.696 with Veliparib + Crizotinib (first compound 0.02 µM); 0.72 with Veliparib + Crizotinib (first compound 0.06325 µM); 0.708 in the experiment with Veliparib + Crizotinib (first compound 0.2 µM). In addition, the values for the relative viability with Veliparib + Crizotinib (first compound 0.6325 µM) and in the experiment with Veliparib + Crizotinib (first compound 2 µM) were 0.665 and 0.572, respectively.

Consider NCI-H727, for which the relative viability in experiment [1] (first compound 0.08 µM) came out at 0.653; in experiment [1] (first compound 0.253 µM), 0.538; in experiment [1] (first compound 0.8 µM), 0.57; in experiment [1] (first compound 2.53 µM), 0.503; in experiment [1] (first compound 8 µM) it was 0.654; in experiment [2] (first compound 0.08 µM) it was 0.68. The relative viability in experiment [2] (first compound 0.253 µM) turned out to be 0.709; in experiment [2] (first compound 0.8 µM), 0.755; in experiment [2] (first compound 2.53 µM), 0.649; in experiment [2] (first compound 8 µM) it was 0.622; with Veliparib + Foretinib (first compound 0.02 µM), 1.22; with Veliparib + Foretinib (first compound 0.06325 µM), 0.66. Further, the relative viability was determined as 0.816 in the experiment with Veliparib + Foretinib (first compound 0.2 µM); 0.694 with Veliparib + Foretinib (first compound 0.6325 µM); 1.04 in the experiment with Veliparib + Foretinib (first compound 2 µM); 0.814 with Veliparib + Crizotinib (first compound 0.02 µM); 0.685 in the experiment with Veliparib + Crizotinib (first compound 0.06325 µM); 0.855 with Veliparib + Crizotinib (first compound 0.2 µM). Further, the relative viability turned out to be 0.668 in the experiment with Veliparib + Crizotinib (first compound 0.6325 µM) and 0.764 with Veliparib + Crizotinib (first compound 2 µM).

The values above are taken from the supplement of paper PMC10307832.
